Data on 12 compounds can be found in patent US6906094B2, “1,2,4-tribsubstituted benzenes as inhibitors of 15-lipoxygenase” (Warner-Lambert Company, priority 2000, dated 2005).

Data set [1] has as its target T1, human 15-LO (Homo sapiens, UniProt P16050).
T1 construct: made in house; host or cells: Sf9 insect cells (baculovirus, Bac-to-Bac)
T1 sequence (P16050 1-662): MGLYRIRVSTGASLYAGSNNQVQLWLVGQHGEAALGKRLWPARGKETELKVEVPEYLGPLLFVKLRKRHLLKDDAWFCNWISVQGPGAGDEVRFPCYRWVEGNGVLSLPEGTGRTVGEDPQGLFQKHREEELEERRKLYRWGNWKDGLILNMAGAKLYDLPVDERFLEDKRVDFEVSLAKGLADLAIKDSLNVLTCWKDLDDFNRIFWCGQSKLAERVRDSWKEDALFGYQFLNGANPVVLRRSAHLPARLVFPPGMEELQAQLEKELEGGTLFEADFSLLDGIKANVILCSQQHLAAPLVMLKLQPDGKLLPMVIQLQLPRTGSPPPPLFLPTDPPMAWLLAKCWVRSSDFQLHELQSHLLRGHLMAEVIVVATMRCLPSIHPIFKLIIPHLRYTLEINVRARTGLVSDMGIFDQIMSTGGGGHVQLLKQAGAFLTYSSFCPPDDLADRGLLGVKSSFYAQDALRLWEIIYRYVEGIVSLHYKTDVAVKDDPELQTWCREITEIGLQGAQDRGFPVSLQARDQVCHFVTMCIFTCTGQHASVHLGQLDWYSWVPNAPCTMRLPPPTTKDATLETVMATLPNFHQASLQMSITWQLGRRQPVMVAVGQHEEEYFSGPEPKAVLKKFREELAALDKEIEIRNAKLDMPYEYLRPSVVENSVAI
Briefly: Human Lysate 15-LO Assay (HUM15LO). Format: biochemical. The conditions noted are these: recombinant human 15-LO, 174 μM linoleic acid, 15 minutes at 4° C., 13-HODE quantitated. The essentials: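 Baculovirus-expressed recombinant enzyme incubated with compound and 174 μM linoleic acid in PBS with 0.2% sodium cholate, 15 min at 4° C. 13-HODE product quantitated against an authentic standard curve. Percent inhibition derived relative to a compound-free control reaction.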

The target in data set [2] is T2, rabbit reticulocyte 15-LO (Oryctolagus cuniculus, UniProt P12530).
T2 construct: 15-LO is obtained from phenylhydrazine-treated rabbits and purified according to the method of Rapoport; from tissue; host or cells: reticulocytes of phenylhydrazine-treated rabbits
T2 sequence (P12530 1-663): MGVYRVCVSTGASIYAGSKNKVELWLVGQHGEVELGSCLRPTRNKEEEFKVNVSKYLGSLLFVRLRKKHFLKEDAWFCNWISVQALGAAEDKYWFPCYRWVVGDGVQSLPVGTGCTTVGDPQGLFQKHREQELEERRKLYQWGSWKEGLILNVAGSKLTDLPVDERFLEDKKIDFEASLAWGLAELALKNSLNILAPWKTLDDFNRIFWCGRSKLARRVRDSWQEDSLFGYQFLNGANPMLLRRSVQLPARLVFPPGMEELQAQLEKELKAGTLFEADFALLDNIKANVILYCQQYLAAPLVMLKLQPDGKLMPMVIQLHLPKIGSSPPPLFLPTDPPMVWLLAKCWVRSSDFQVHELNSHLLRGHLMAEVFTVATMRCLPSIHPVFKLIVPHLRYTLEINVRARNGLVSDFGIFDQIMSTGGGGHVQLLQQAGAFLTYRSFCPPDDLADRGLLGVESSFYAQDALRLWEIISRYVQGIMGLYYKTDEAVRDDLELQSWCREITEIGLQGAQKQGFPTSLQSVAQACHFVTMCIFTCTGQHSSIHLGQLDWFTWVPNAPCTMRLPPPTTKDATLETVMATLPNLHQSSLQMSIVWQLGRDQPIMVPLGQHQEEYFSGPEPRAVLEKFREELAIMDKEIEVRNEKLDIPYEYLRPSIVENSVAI
The data set is described as follows: Rabbit Reticulocyte 15-LO Assay (H15LO). Format: biochemical. The conditions noted are these: 2 U rabbit reticulocyte 15-LO, 174 μM linoleic acid, 15 minutes at 4° C., 13-HODE quantitated. The method in brief:
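Rabbit reticulocyte 15-LO purified from phenylhydrazine-treated rabbits; 2 U enzyme incubated with 174 μM linoleic acid and test compound for 15 min at 4° C in PBS with 0.2% sodium cholate. Reaction stopped with mobile phase and triethyl phosphite; 13-HODE product quantitated by peak area against an authentic 13-HODE standard curve.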

As for `COc1ccc(-c2cc3cc(F)c(F)cc3[nH]2)cc1NS(=O)(=O)NC(=O)OC/C=C/c1ccccc1` [Example 32, Carbamic Acid, [[[5-(5,6-difluoro-IH-indol-2-yl)-2-methoxyphenyl]amino]sulfonyl]-(2E)-3-phenyl-2-propenyl ester], the melting point (commonly the temperature, or range, at which the solid turns liquid) lay in the range of 149 to 152 °C. In data set [1], the IC50 – broadly, the concentration that gives 50% inhibition – was 16 nM. The IC50 in data set [2] was 6 nM.
In the case of `COc1ccc(C(=O)Nc2ccc(F)c(F)c2)cc1NS(=O)(=O)NC(=O)OC/C=C/c1ccccc1` [Example 33, Carbamic Acid, [[[5-[[(3,4-difluorophenyl)amino]carbonyl]-2-methoxyphenyl]amino]sulfonyl]-, (2E)-3-phenyl-2-propenyl ester], the melting point was in the range of 159 to 163 °C. In addition, the IC50 in data set [1] stood at 13 nM. Also, the IC50 in data set [2] was 7 nM.
Compound `COc1ccc(-c2cc3cc(F)c(F)cc3[nH]2)cc1NS(=O)(=O)NC(=O)OCc1ccccc1` [Example 36, Carbamic Acid, [[[5-(5,6-difluoro-IH-indol-2-yl)-methoxyphenyl]amino]-sulfonyl]-, Phenylmethyl ester] gave a melting point of 177 to 180 °C. The IC50 in data set [1] came to 13 nM. In data set [2], this compound came in with an IC50 of 12 nM.
On the same counts, the results for `COc1ccc(C(=O)Nc2ccc(F)c(F)c2)cc1NS(=O)(=O)NC(=O)OCc1ccccc1` [Example 42, Carbamic Acid, [[[5-[[(3,4-difluorophenyl)amino]carbonyl]-2-methoxyphenyl]amino]sulfonyl]-, Phenylmethyl Ester] are 173 to 176 °C, 76 nM and 19 nM.
In the case of `CCOCCOC(=O)NS(=O)(=O)Nc1cc(-c2cc3cc(F)c(F)cc3[nH]2)ccc1OC` [Example 47, Carbamic Acid, [[[5-(5,6-difluoro-IH-indol-2-yl)-2-methoxyphenyl]-amino]sulfonyl]-, 2-ethoxyethyl ester], the melting point lay within 178 to 181 °C. Moreover, the IC50 in data set [1] came out at 54 nM. Moreover, the half-maximal inhibitory concentration (IC50) in data set [2] is 44 nM.
Consider `COc1ccc(-c2cc3cc(F)c(F)cc3[nH]2)cc1NS(=O)(=O)NC(=O)OCCCOCc1ccccc1` [Example 49, Carbamic Acid, [[[5-(5,6-difluoro-IH-indol-2-yl)-2-methoxyphenyl]-amino]sulfonyl]-3-(phenylmethoxy)propyl ester], for which the melting point is 166 to 168 °C. Moreover, the IC50 in data set [1] is 15 nM. In addition, the IC50 in data set [2] was found to be 5 nM.
As for `COc1ccc(C(=O)Nc2ccc(F)c(F)c2)cc1NS(=O)(=O)NC(=O)OCCCOCc1ccccc1` [Example 50, Carbamic Acid, [[[5-[[(3,4-difluorophenyl)amino]carbonyl]-2-methoxyphenyl]amino]sulfonyl]-, 3-(phenylmethoxy)propyl ester], the melting point was in the range of 178 to 179 °C. In addition, in data set [1], the IC50 was 65 nM. In addition, in data set [2], 18 nM corresponded to half-maximal inhibition (IC50).
`CCCCCCOC(=O)NS(=O)(=O)Nc1cc(-c2cc3cc(F)c(F)cc3[nH]2)ccc1OC` [Example 51, Carbamic Acid, [[[5-(5,6-difluoro-IH-indo-2yl)-methoxyphenyl]amino]-sulfonyl]-hexyl ester] gave a melting point of 186 to 188 °C. Besides, the IC50 in data set [1] turned out to be 12 nM. The same compound displayed a half-maximal inhibitory concentration (IC50) in data set [2] of 2 nM.
On the same counts, the results for `CCCCCCOC(=O)NS(=O)(=O)Nc1cc(C(=O)Nc2ccc(F)c(F)c2)ccc1OC` [Example 52, Carbamic Acid, [[[5-[[(3,4-difluorophenyl)amino]carbonyl]-2methoxyphenyl]amino]sulfonyl]-, Hexyl ester] are 175 to 178 °C, 39 nM and 5 nM.
The compound `COc1ccc(-c2cc3cc(F)c(F)cc3[nH]2)cc1NS(N)(=O)=O` [Example 54, Sulfamide, [5-(5,6-difluoro-IH-indol-2-yl)-2-methoxyphenyl]] came in with a melting point of 177 to 180 °C. The concentration for half-maximal inhibition (IC50) in data set [1] amounted to 12 nM. Further, the concentration for half-maximal inhibition (IC50) in data set [2] worked out at 10 nM.
Turning to `COc1ccc(C(=O)Nc2ccc(F)c(F)c2)cc1NS(N)(=O)=O` [Example 55, Benzamide, 3-[(aminosulfonyl)amino]-N-(3,4-difluorophenyl)-4-methoxy], the melting point was 167 to 170 °C. The IC50 in data set [1] amounted to 29 nM. Also, the IC50 in data set [2] worked out at 19 nM.
Turning to `COc1ccc(C(=O)Nc2ccc(F)c(F)c2)cc1NS(=O)(=O)NC(=O)Nc1cccc(Cl)c1` [Example 61, Benzamide, 3-[[[[[(3-chlorophenyl)amino]carbonyl]amino]sulfonyl]amino]-N-(3,4-difluorophenyl)-4-methoxy], the melting point fell in the range of 193 to 196 °C. In addition, in data set [1], the IC50 is 39 nM. This compound also displayed an IC50 in data set [2] of 13 nM.
